Columns and labels:
[1] = system: mice; assay: animal or person; format: in vivo, mouse; details: for ED50: Mus musculus, mice, dose [micromoles per kg of body weight] which gives a group mean response time of 5 seconds, read-out: Tail Flick (ED50); for analgesic activity (in words): summary statement, mice tail flick and writhing assays
From the text: (§1) Using mice, the compounds of this invention were subjected to the Tail Flick Analgesic Assay, the Writhing Analgesic Assay, the Straub Tail Antagonist Assay and the Mouse Jump Physical Dependence Assay, said assays being described in the literature as follows:
Tail Flick Analgesic Assay
D'Amour, F. E and Smith, D. L., J. Pharmacol. Exp. Therap. 72, 74-79 (1941)
Howes, J. F., Harris, L. S., Dewey, W. L. and Voyda, C. A., J. Pharmacol. Exp. Therap. 169, 23-28 (1969)
Dewey, W. L., Harris, L. S., Howes, J. F. and Nuite, J. A., J. Pharmacol. Exp. Therap. 175, 435-442 (1970)
The Tail Flick Analgesic Assay represents a test procedure in which heat from an intense light source is focused on the mouse's tail. When pain is detected by the mouse the tail gives a characteristic flicking response. In untreated controls the intervals from exposure to flick is about 2 seconds, while when using an effective analgesic the interval from exposure to flick is usually about 6 to 10 seconds. The ED50 values given in Table 1 below represent the dose [micromoles (μM) per kg of body weight] which gives a group mean response time of 5 seconds.

[2] = system: mice; assay: animal or person; format: in vivo; details: Mus musculus, ip, phenylquinone i.p., dose which eliminates any writhing in 50% of the treated mice
From the text: as §1
Blumberg, H., Wolf, P. S. and Dayton, H. B., Proc. soc. Exper. Biol. Med., 118, 763 (1965).
The ED50 values given in Table 1 below represent the dose (μM/kg) which eliminates any such writhing in 50% of the treated mice.

[3] = system: mice; assay: Straub Tail Antagonist Assay (morphine-injected mice); format: in vivo, mouse; details: for ED50: Mus musculus, dose which abolishes the response in 50% of the test mice, read-out: Inhibition of Straub tail response (ED50); for antagonist properties (in words): summary statement
From the text: as §1
Straub Tail Antagonist Assay
Blumberg, H. and Dayton, H. B. In Narcotic antagonists Advances in Biochemical Psychopharmacology, Vol. 8, Ed., Brande, M. C., Harris L. S.

[4] = system: mice; assay: Mouse Jump Physical Dependence Assay; format: in vivo; details: for Total Number Mice Affected (Jumped): i.p., 30 min; for number of mice jumping / withdrawal symptoms (in words): Naloxone 100 mg/kg on day 4, 30 minutes
From the text: as §1
Saelens, J. K., Granat, F. R. and Sawyer, W. K. Arch. int. Pharmacodyn 190, 213-218 (1971).
Using mice, tests were made to determine the physical dependence capacity of compounds 7(S) 7(R) and 9 as measured by the Mouse Jump Test, this being a simple screening method to estimate the physical dependence capacity of analgesics. In this mouse jumping test, the mice are injected (i.p.) 5× on day 1 with gradually increasing dosages ranging from 8 to 100 mg/kg of body weight. On days 2 and 3 the mice (in all except one test) were given 100 mg/kg 4×. In the one test, dosage was raised to 200-300 mg/kg on day 2 and to 300 mg/kg on day 3. On day 4 all the mice received one shot (100 mg/kg) of the antogonist Naloxone. Following this all mice were caged for 30 minutes and a record was made of the number of mice jumping during this interval.

[5] = cited from earlier work; for analgesic / agonist activity (in words): literature
[6] = literature; cited from earlier work
[7] = 8-100 mg/kg day 1, 100 mg/kg days 2 and 3, 100 mg/kg Naloxone day 4, mice tested: 7(S) 20, 7(R) 12, 9 10, Morphine 10, Nalline 12

Compound: CC[C@@H](C)N1CC[C@]23c4c5ccc(O)c4O[C@H]2[C@@H](O)C=C[C@H]3[C@H]1C5 [7(R), N-2-butylnormorphine]
- ED50 [1]: 19 µmol/kg
- ED50 [2]: 6.4 µmol/kg
- ED50 ([3]; mice injected with morphine): 16.2 µmol/kg
- Total Number Mice Affected (Jumped) [4, 7]: 1
- number of mice jumping / withdrawal symptoms (in words) [4]: very small

Compound: CC[C@H](C)N1CC[C@]23c4c5ccc(O)c4O[C@H]2[C@@H](O)C=C[C@H]3[C@H]1C5 [7(S), N-2-butylnormorphine]
- ED50 [1]: 13.4 µmol/kg
- ED50 [2]: 11 µmol/kg
- ED50 ([3]; mice injected with morphine): 7.4 µmol/kg
- Total Number Mice Affected (Jumped) [4, 7]: 2
- Total Number Mice Affected (Jumped) ([4]; 8-100 mg/kg day 1, 200-300 mg/kg day 2, 300 mg/kg day 3, 100 mg/kg Naloxone day 4, 10 mice tested): 1
- number of mice jumping / withdrawal symptoms (in words) [4]: very small

Compound: C=C[C@@H](C)N1CC[C@]23c4c5ccc(O)c4O[C@H]2[C@@H](O)C=C[C@H]3[C@H]1C5 [8(R), N-α-methylallylnormorphine]
- ED50 [1]: 44.5 µmol/kg
- ED50 [2]: 13 µmol/kg
- ED50 ([3]; mice injected with morphine): 11 µmol/kg

Compound: CCC(C)N1CC[C@]23c4c5ccc(O)c4O[C@H]2[C@@H](O)C=C[C@H]3[C@H]1C5 (stereo partly shown) [Compound 7, N-2-butylnormorphine]
- analgesic activity (in words) [1]: analgesic activities similar to morphine
- antagonist properties (in words) [3]: antagonist properties indicative of low addiction potential

Compound: C=CC(C)N1CC[C@]23c4c5ccc(O)c4O[C@H]2[C@@H](O)C=C[C@H]3[C@H]1C5 (stereo partly drawn) [Compound 8, N-α-methylallylnormorphine]
- analgesic activity (in words) [1]: analgesic activities similar to morphine
- antagonist properties (in words) [3]: antagonist properties indicative of low addiction potential

Compound: CC(C1CC1)N1CC[C@]23c4c5ccc(O)c4O[C@H]2[C@@H](O)C=C[C@H]3[C@H]1C5 (stereo partly drawn) [Compound 9, N-α-methylcyclopropylmethylnormorphine]
- ED50 [1]: 12.4 µmol/kg
- analgesic activity (in words) [1]: analgesic activities similar to morphine
- ED50 [2]: 0.69 µmol/kg
- ED50 ([3]; mice injected with morphine): 4.5 µmol/kg
- antagonist properties (in words) [3]: antagonist properties indicative of low addiction potential
- Total Number Mice Affected (Jumped) [4, 7]: 1
- number of mice jumping / withdrawal symptoms (in words) [4]: very small

Compound: CCC(CC)N1CC[C@]23c4c5ccc(O)c4O[C@H]2[C@@H](O)C=C[C@H]3[C@H]1C5 [Compound 10, N-3-pentylnormorphine]
- ED50 [1]: 19.9 µmol/kg
- analgesic activity (in words) [1]: analgesic activities similar to morphine
- ED50 [2]: 2.3 µmol/kg
- ED50 ([3]; mice injected with morphine): 17.2 µmol/kg
- antagonist properties (in words) [3]: antagonist properties indicative of low addiction potential

Compound: CN1CC[C@]23c4c5ccc(O)c4O[C@H]2[C@@H](O)C=C[C@H]3[C@H]1C5 [Morphine]
- Inhibition of Straub tail response (result in words) ([3]; mice injected with morphine): No inhibition
- Total Number Mice Affected (Jumped) [4, 7]: 10
- number of mice jumping / withdrawal symptoms (in words) [4]: all of the mice showed withdrawal symptoms

Compound: CCCCCN1CC[C@]23c4c5ccc(O)c4O[C@H]2[C@@H](O)C=C[C@H]3[C@H]1C5 [N-amyl-, N-amylnormorphine]
- analgesic / agonist activity (in words) [5]: potent analgesic activity
- antagonist activity (in words) [6]: devoid of antagonist properties

Compound: CCCCN1CC[C@]23c4c5ccc(O)c4O[C@H]2[C@@H](O)C=C[C@H]3[C@H]1C5 [N-butyl-, N-butylnormorphine]
- analgesic / agonist activity (in words) [5]: potent analgesic activity
- antagonist activity (in words) [6]: devoid of antagonist properties

Compound: CCCCCCN1CC[C@]23c4c5ccc(O)c4O[C@H]2[C@@H](O)C=C[C@H]3[C@H]1C5 [N-hexylnormorphine]
- analgesic / agonist activity (in words) [5]: potent analgesic activity
- antagonist activity (in words) [6]: devoid of antagonist properties

Compound: CC(C)CN1CC[C@]23c4c5ccc(O)c4O[C@H]2[C@@H](O)C=C[C@H]3[C@H]1C5 [N-isobutylnormorphine]
- antagonist activity (in words) [6]: morphine antagonists only

Compound: COc1ccc2c3c1O[C@H]1[C@@H](O)C=C[C@H]4[C@@H](C2)N(C(C)C)CC[C@@]341 [N-isopropyl-norcodeine]
- analgesic / agonist activity (in words) [5]: inactive

Compound: CC(C)N1CC[C@]23c4c5ccc(O)c4O[C@H]2[C@@H](O)C=C[C@H]3[C@H]1C5 [N-isopropyl-normorphine]
- analgesic / agonist activity (in words) [5]: not a good agonist
- antagonist activity (in words) [6]: little, if any, antagonist qualities

Compound: CCCN1CC[C@]23c4c5ccc(O)c4O[C@H]2[C@@H](O)C=C[C@H]3[C@H]1C5 [N-propyl normorphine]
- antagonist activity (in words) [6]: morphine antagonists only

Compound: C=CCN1CC[C@]23c4c5ccc(O)c4O[C@H]2[C@@H](O)C=C[C@H]3[C@H]1C5 [Nalorphine, N-allylnormorphine, reference compound]
- ED50 ([3]; mice injected with morphine): 1 µmol/kg
- Total Number Mice Affected (Jumped) [4, 7]: 0-3
- number of mice jumping / withdrawal symptoms (in words) [4]: very small

Compound: CC(C)=CCN1CCC2(C)c3cc(O)ccc3CC1C2C (stereo not shown) [pentazocine]
- analgesic potency relative to morphine ([5]; fraction of the potency of morphine): about one-fourth
- antagonist activity (in words) [6]: dual agonist-antagonist

Source: patent US4269843A, “N-Sec-alkyl analogs of norcodeine and normorphine and analgesic compositions and methods employing the normorphine derivatives” (priority 1980, dated 1981)
